In patent US10653688B2, “6-(6-membered heteroaryl and aryl)isoquinolin-3-yl carboxamides and preparation and use thereof” (Samumed, LLC, priority 2017, dated 2020):

Columns and labels:
[1] = tested on: Wnt activity (SW480 colon carcinoma cells stably expressing the Sp5-Luc reporter gene); assay: Wnt activity screening assay (Sp5-Luc reporter gene assay); format: cell-based, human; details: Homo sapiens; for EC50: 36 to 48 hours; for inhibition at 10 µM: read-out: percent inhibition at 10 μM (given for EC50 >10 μM), 10 μM
Method in brief: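 SW480 colon carcinoma cells stably carrying a lentiviral luciferase reporter driven by an Sp5 promoter with eight TCF/LEF sites, plated at 4,000 cells/well in DMEM with 1% FBS. Compound exposure for 36–48 h at 37 °C, then luminescence read. Signals normalized to DMSO; EC50 from four-parameter nonlinear fit.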

recombinant GSK3β kinase = recombinant GSK3β kinase (Homo sapiens (Human), UniProt P49841); assay: GSK3β kinase assay (Ser/Thr 09 peptide Z-lyte, FRET); format: biochemical; details: GSK3β kinase; head says EC50, method says IC50; ATP 46 μM;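 also: FRET read-out as coumarin over fluorescein emission ratio, compounds incubated one hour at room temperature, IC50 from dose-response curve fit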
Protocol: Each compound is dissolved in DMSO as a 10 mM stock and used to prepare compound source plates. Serial dilution (1:3, 11-point dose-response curves from 10 M to 0.0003 M) and compound transfer was performed using the ECHO 550 (Labcyte, Sunnyvale, Calif.) into 1536-well black-walled round bottom plates (Corning).
This is a non-radioactive assay using fluorescence resonance energy transfer (FRET) between coumarin and fluorescein to detect kinase activity which is represented as ratio of coumarin emission/fluorescein emission.
The mixture is allowed to incubate with the representative compounds for one hour at room temperature. All reactions were performed in duplicate. Unphosphorylated (“0% Control”) and phosphorylated (“100% control”) forms of Ser/Thr 18 serve as control reactions.
After incubation, diluted Development Buffer is added to the reaction and allowed to further incubate for one hour at room temperature.
Dose-response curves are generated and inhibitory concentration (IC50) values are calculated using non-linear regression curve fit in the Dotmatics' Studies Software (Bishops Stortford, UK).

[2] = tested on: SW480 colon carcinoma cells; assay: Cell viability assay (CellTiter-Glo); format: cell-based, human; details: Homo sapiens; for EC50: 96 h, four days, CellTiter-Glo; for inhibition at 10 µM: read-out: percent inhibition at 10 μM (given for EC50 >10 μM), 10 μM
[3] = tested on: LL29 cells (primary human fibroblasts derived from IPF patients), α-smooth muscle actin; assay: Inhibition of fibrotic process: TGF-β1-treated primary human fibroblasts, αSMA staining; format: cell-based; details: Homo sapiens, Fibroblast; for EC50: 96 h, TGF-β1 20 ng/mL, 4 days, % cells positive for αSMA; for inhibition at 10 µM: read-out: percent inhibition at 10 μM (given for EC50 >10 μM), TGF-β1, αSMA, 10 μM;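 as to all read-outs here: controls were TGF-β1-stimulated wells with DMSO vehicle as the positive reference and cells given DMSO alone as the negative reference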
[4] = tested on: IL-6 in human peripheral blood mononuclear cells (huPBMCs); assay: IL-6 inhibition in LPS-stimulated human peripheral blood mononuclear cells (HTRF); format: cell-based; details: Homo sapiens, PBMC; for EC50: LPS 50 ng/mL, 22 hours, IL-6 HTRF; for inhibition at 10 µM: read-out: percent inhibition at 10 μM (given for EC50 >10 μM), LPS, IL-6, 10 μM
Method in brief: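 Fresh normal human PBMCs at 1×10e6 cells/mL in RPMI with 1% FBS received compound, then 50 ng/mL E. coli 0111:B4 LPS 2 h later, and were incubated a further 22 h at 37° C. IL-6 read by HTRF (665/620 nm ratio), normalized to DMSO; EC50 from 4-parameter fit.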

[5] = target: recombinant DYRK1A kinase (Homo sapiens (Human), UniProt Q13627); assay: DYRK1A kinase assay (Ser/Thr 18 peptide Z-lyte, FRET); details: DYRK1A kinase; head says EC50, method says IC50; ATP 30 μM

Sequence of recombinant GSK3β kinase (P49841 whole entry): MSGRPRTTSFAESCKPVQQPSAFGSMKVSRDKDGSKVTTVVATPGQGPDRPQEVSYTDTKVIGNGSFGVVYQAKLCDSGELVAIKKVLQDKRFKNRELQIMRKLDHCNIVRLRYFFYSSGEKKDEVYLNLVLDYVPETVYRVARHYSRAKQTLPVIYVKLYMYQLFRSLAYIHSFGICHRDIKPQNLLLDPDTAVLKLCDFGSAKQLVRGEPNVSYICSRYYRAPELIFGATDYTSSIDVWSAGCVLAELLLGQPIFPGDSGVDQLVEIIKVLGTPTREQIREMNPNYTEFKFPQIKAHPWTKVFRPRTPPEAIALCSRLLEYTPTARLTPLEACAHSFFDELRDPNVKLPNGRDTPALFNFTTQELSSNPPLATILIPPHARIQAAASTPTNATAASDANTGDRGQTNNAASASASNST

Row | SMILES | EC50 [1] | EC50 (recombinant GSK3β kinase) | EC50 [2] | EC50 [4] | EC50 [5] | EC50 [3] | inhibition at 10 µM [3] | inhibition at 10 µM [4] | inhibition at 10 µM [1] | inhibition at 10 µM [2]
1 | CCN(CC)c1cncc(-c2ccc3cnc(NC(=O)c4ccnc(N5CCN(C)CC5)c4)cc3c2)n1 [Compound 121, N-(6-(6-(Diethylamino)pyrazin-2-yl)isoquinolin-3-yl)-2-(4-methylpiperazin-1-yl)isonicotinamide] | 1040 nM | > 10000 nM | 2910 nM | 1910 nM | 6 nM | 710 nM | – | – | – | –
2 | NC1CN(c2cncc(-c3ccc4cnc(NC(=O)c5ccc(F)cc5)cc4c3)n2)C1 [Compound 122, N-(6-(6-(3-aminoazetidin-1-yl)pyrazin-2-yl)isoquinolin-3-yl)-4-fluorobenzamide] | 6180 nM | > 10000 nM | 8900 nM | 3150 nM | 11 nM | > 10000 nM | 4.8% | – | – | –
3 | CN1CCN(c2cc(C(=O)Nc3cc4cc(-c5cncc(N6CCCC6)n5)ccc4cn3)ccn2)CC1 [Compound 123, 2-(4-Methylpiperazin-1-yl)-N-(6-(6-(pyrrolidin-1-yl)pyrazin-2-yl)isoquinolin-3-yl)isonicotinamide] | 3570 nM | > 10000 nM | 8330 nM | > 10000 nM | 13 nM | 1040 nM | – | 20.9% | – | –
4 | O=C(Nc1cc2cc(-c3cncc(OC4CNC4)n3)ccc2cn1)c1ccc(F)cc1 [Compound 125, N-(6-(6-(Azetidin-3-yloxy)pyrazin-2-yl)isoquinolin-3-yl)-4-fluorobenzamide] | 7270 nM | > 10000 nM | 7640 nM | > 10000 nM | 5 nM | > 10000 nM | 43.6% | 4.5% | – | –
5 | CN1CCN(c2cc(C(=O)Nc3cc4cc(-c5cnc6[nH]ccc6c5)ccc4cn3)ccn2)CC1 [Compound 129, N-(6-(1H-Pyrrolo[2,3-b]pyridin-5-yl)isoquinolin-3-yl)-2-(4-methylpiperazin-1-yl)isonicotinamide] | 1370 nM | > 10000 nM | 1170 nM | 3360 nM | 18 nM | 699 nM | – | – | – | –
6 | Cc1cc2cc(-c3ccc4cnc(NC(=O)c5ccnc(N6CCN(C)CC6)c5)cc4c3)cnc2[nH]1 [Compound 133, N-(6-(2-Methyl-1H-pyrrolo[2,3-b]pyridin-5-yl)isoquinolin-3-yl)-2-(4-methylpiperazin-1-yl)isonicotinamide] | 4080 nM | > 10000 nM | 3740 nM | 3280 nM | 57 nM | 4030 nM | – | – | – | –
7 | Cc1c[nH]c2ncc(-c3ccc4cnc(NC(=O)c5ccnc(N6CCN(C)CC6)c5)cc4c3)cc12 [Compound 134, N-(6-(3-Methyl-1H-pyrrolo[2,3-b]pyridin-5-yl)isoquinolin-3-yl)-2-(4-methylpiperazin-1-yl)isonicotinamide] | 6210 nM | > 10000 nM | 3930 nM | 8810 nM | 54 nM | 2750 nM | – | – | – | –
8 | CN1CCN(c2cc(C(=O)Nc3cc4cc(-c5cnc6[nH]ccc6n5)ccc4cn3)ccn2)CC1 [Compound 136, N-(6-(5H-Pyrrolo[2,3-b]pyrazin-2-yl)isoquinolin-3-yl)-2-(4-methylpiperazin-1-yl)isonicotinamide] | 1730 nM | > 10000 nM | 1240 nM | 9060 nM | 38 nM | 933 nM | – | – | – | –
9 | CN1CCN(c2cc(C(=O)Nc3cc4cc(-c5cnc6cc[nH]c6n5)ccc4cn3)ccn2)CC1 [Compound 137, N-(6-(5H-Pyrrolo[2,3-b]pyrazin-3-yl)isoquinolin-3-yl)-2-(4-methylpiperazin-1-yl)isonicotinamide] | > 10000 nM | > 10000 nM | 1220 nM | > 10000 nM | 27 nM | > 10000 nM | 34.2% | 3.9% | 19.8% | –
10 | O=C(Nc1cc2cc(-c3cccnc3)ccc2cn1)c1coc(C2CCNCC2)n1 [Compound 140, 2-(Piperidin-4-yl)-N-(6-(pyridin-3-yl)isoquinolin-3-yl)oxazole-4-carboxamide] | > 10000 nM | > 10000 nM | 724 nM | 3400 nM | 1050 nM | 1680 nM | – | – | 6.6% | –
11 | O=C(Nc1cc2cc(-c3cncc(F)c3)ccc2cn1)c1coc(C2CCNCC2)n1 [Compound 141, N-(6-(5-Fluoropyridin-3-yl)isoquinolin-3-yl)-2-(piperidin-4-yl)oxazole-4-carboxamide] | 4010 nM | > 10000 nM | 5880 nM | 9000 nM | 306 nM | 1510 nM | – | – | – | –
12 | CN1CCC(c2nc(C(=O)Nc3cc4cc(-c5cccnc5)ccc4cn3)co2)CC1 [Compound 142, 2-(1-Methylpiperidin-4-yl)-N-(6-(pyridin-3-yl)isoquinolin-3-yl)oxazole-4-carboxamide] | 3500 nM | > 10000 nM | > 10000 nM | > 10000 nM | 689 nM | > 10000 nM | 8.8% | 7.8% | – | 16.9%
13 | CN1CCC(c2nc(C(=O)Nc3cc4cc(-c5cncc(F)c5)ccc4cn3)co2)CC1 [Compound 143, N-(6-(5-Fluoropyridin-3-yl)isoquinolin-3-yl)-2-(1-methylpiperidin-4-yl) oxazole-4-carboxamide] | > 10000 nM | > 10000 nM | > 10000 nM | > 10000 nM | 6800 nM | 2440 nM | – | 8.2% | 0.8% | 8%

Now those with a lower EC50 [1], led by results:

Row | EC50 [1] | EC50 (recombinant GSK3β kinase) | EC50 [2] | EC50 [4] | EC50 [5] | SMILES | EC50 [3] | inhibition at 10 µM [3] | inhibition at 10 µM [4] | inhibition at 10 µM [1] | inhibition at 10 µM [2]
14 | 98 nM | > 10000 nM | 768 nM | 2720 nM | 22 nM | CN1CCC(n2cc(C(=O)Nc3cc4cc(-c5cnc6[nH]ccc6c5)ccc4cn3)cn2)CC1 [Compound 126, N-(6-(1H-Pyrrolo[2,3-b]pyridin-5-yl)isoquinolin-3-yl)-1-(1-methylpiperidin-4-yl)-1H-pyrazole-4-carboxamide] | 1450 nM | – | – | – | –
15 | 27 nM | > 10000 nM | 74 nM | 1560 nM | 5 nM | CN1CCC(n2cc(C(=O)Nc3cc4cc(-c5cnc6cc[nH]c6c5)ccc4cn3)cn2)CC1 [Compound 127, N-(6-(1H-Pyrrolo[3,2-b]pyridin-6-yl)isoquinolin-3-yl)-1-(1-methylpiperidin-4-yl)-1H-pyrazole-4-carboxamide] | 272 nM | – | – | – | –
16 | 13 nM | 9070 nM | 31 nM | 678 nM | 4 nM | CN1CCC(n2cc(C(=O)Nc3cc4cc(-c5cncc6[nH]ccc56)ccc4cn3)cn2)CC1 [Compound 128, N-(6-(1H-Pyrrolo[2,3-c]pyridin-4-yl)isoquinolin-3-yl)-1-(1-methylpiperidin-4-yl)-1H-pyrazole-4-carboxamide] | 102 nM | – | – | – | –
17 | 378 nM | > 10000 nM | 501 nM | 3920 nM | 4 nM | CN1CCN(c2cc(C(=O)Nc3cc4cc(-c5cnc6cc[nH]c6c5)ccc4cn3)ccn2)CC1 [Compound 130, N-(6-(1H-Pyrrolo[3,2-b]pyridin-6-yl)isoquinolin-3-yl)-2-(4-methylpiperazin-1-yl)isonicotinamide] | 941 nM | – | – | – | –
18 | 235 nM | > 10000 nM | 285 nM | 2900 nM | 3 nM | CN1CCN(c2cc(C(=O)Nc3cc4cc(-c5cncc6[nH]ccc56)ccc4cn3)ccn2)CC1 [Compound 131, N-(6-(1H-Pyrrolo[2,3-c]pyridin-4-yl)isoquinolin-3-yl)-2-(4-methylpiperazin-1-yl)isonicotinamide] | 604 nM | – | – | – | –
19 | 39 nM | > 10000 nM | 71 nM | 2760 nM | 2 nM | CC(C)n1cc(C(=O)Nc2cc3cc(-c4cncc(NC5CCNCC5)n4)ccc3cn2)cn1 [Compound 138, 1-Isopropyl-N-(6-(6-(piperidin-4-ylamino)pyrazin-2-yl)isoquinolin-3-yl)-1H-pyrazole-4-carboxamide] | 78 nM | – | – | – | –
20 | 32 nM | > 10000 nM | 52 nM | 361 nM | 2 nM | CC(C)n1cc(C(=O)Nc2cc3cc(-c4cncc(NC5CCN(C)CC5)n4)ccc3cn2)cn1 [Compound 139, 1-Isopropyl-N-(6-(6-((1-methylpiperidin-4-yl)amino)pyrazin-2-yl)isoquinolin-3-yl)-1H-pyrazole-4-carboxamide] | 148 nM | – | – | – | –
